Assay results: ChEMBL document CHEMBL1129258, “Synthesis and structure-activity relationships of 2-pyridones: a novel series of potent DNA gyrase inhibitors as antibacterial agents” (J Med Chem, 1996)
Converted amounts (≈) assume the structure as drawn.

Target: T1, DNA gyrase (Staphylococcus aureus) (UniProt P0A0K8+P20831)
Assay: In vitro antibacterial activity against gram-positive organism Staphylococcus aureus 1775
Type: functional
Conditions: not given

T1 sequence (P0A0K8 2-644 limits assumed): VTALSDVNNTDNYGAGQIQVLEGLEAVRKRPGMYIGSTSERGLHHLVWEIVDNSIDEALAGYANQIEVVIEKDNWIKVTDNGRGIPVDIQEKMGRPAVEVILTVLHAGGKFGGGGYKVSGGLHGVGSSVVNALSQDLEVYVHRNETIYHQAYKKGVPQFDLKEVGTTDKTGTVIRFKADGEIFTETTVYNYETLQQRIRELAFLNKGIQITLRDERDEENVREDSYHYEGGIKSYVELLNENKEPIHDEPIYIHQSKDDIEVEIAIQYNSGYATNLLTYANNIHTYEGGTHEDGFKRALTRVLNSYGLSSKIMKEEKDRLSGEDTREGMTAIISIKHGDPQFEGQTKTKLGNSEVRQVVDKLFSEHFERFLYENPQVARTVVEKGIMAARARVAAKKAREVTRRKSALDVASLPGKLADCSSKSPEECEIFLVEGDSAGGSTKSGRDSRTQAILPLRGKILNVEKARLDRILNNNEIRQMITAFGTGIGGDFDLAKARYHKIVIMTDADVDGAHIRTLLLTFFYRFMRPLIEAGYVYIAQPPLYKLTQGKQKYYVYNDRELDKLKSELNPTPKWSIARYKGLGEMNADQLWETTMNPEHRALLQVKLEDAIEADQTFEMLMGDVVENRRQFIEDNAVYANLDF
T1 sequence (P20831 whole entry partner): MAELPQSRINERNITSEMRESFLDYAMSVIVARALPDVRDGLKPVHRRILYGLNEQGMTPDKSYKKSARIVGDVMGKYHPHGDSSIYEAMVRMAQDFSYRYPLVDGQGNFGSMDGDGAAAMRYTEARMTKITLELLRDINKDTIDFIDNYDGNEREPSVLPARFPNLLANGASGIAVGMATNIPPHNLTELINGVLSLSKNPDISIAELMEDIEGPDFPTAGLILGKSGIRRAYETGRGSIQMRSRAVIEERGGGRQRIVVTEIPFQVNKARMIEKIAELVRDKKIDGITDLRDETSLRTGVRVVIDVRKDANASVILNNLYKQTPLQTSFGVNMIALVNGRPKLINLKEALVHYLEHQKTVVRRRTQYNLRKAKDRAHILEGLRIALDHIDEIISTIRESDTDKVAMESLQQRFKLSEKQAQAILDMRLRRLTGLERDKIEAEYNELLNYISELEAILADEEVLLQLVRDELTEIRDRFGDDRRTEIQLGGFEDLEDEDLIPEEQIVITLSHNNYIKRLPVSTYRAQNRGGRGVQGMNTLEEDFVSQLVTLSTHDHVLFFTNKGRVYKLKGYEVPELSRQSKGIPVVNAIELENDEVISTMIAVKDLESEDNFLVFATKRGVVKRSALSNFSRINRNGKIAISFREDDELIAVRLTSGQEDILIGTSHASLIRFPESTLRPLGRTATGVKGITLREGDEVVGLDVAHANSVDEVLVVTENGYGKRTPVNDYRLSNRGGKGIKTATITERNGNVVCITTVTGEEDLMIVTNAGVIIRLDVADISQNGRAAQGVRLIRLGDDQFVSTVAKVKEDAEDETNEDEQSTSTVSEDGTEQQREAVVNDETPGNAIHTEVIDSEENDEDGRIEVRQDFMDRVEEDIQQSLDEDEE

Structure (SMILES)	MIC [µg/mL]
CN1CCN(c2nc3c(C4CC4)cc(C(=O)O)c(=O)n3cc2F)CC1	100 (≈ 289 µM)
Cc1ccc(S(=O)(=O)O)cc1.NC1CCN(c2nc3c(cc2F)c(=O)c(C(=O)O)cn3-c2ccc(F)cc2F)C1 (configuration not stated) [TOSUFLOXACIN TOSYLATE]	> 100
Cc1c(N2C[C@@H]3C[C@H]2CN3)c(F)cn2c(=O)c(C(=O)O)cc(C3CC3)c12	6.2 (≈ 17.3 µM)
CCc1c(N2CCC(N)C2)c(F)cn2c(=O)c(C(=O)O)cc(C3CC3)c12 (configuration not stated)	6.2 (≈ 17.3 µM)
CN1CCN(c2nc3c(-c4ccc(F)cc4F)cc(C(=O)O)c(=O)n3cc2F)CC1	> 100
O=C(O)c1cc(C2CC2)c2nc(N3CCOCC3)c(F)cn2c1=O	> 100

Target: T2, DNA gyrase (Escherichia coli) (UniProt P0AES6+P0AES4)
Conditions: Escherichia coli K-12
Description: Concentration which causes 50% of the gyrase (Escherichia coli H560)-mediated maximal DNA cleavage.

Structure (SMILES)	CC50 [µg/mL]
CN1CCN(c2nc3c(C4CC4)cc(C(=O)O)c(=O)n3cc2F)CC1	1 (≈ 2.89 µM)
O=C(O)c1cc(C2CC2)c2nc(N3CCOCC3)c(F)cn2c1=O	1.5 (≈ 4.5 µM)

System: Streptococcus pyogenes
Assay: In vitro antibacterial activity against gram-positive organism Streptococcus pyogenes EES61
Type: functional
Conditions: Streptococcus pyogenes; read-out: MIC

Structure (SMILES)	MIC [µg/mL]
CCc1cc(C(=O)O)c(=O)n2ccc(N3CCC(N)C3)cc12.Cl (configuration not stated)	25
CN1CCN(c2nc3c(C4CC4)cc(C(=O)O)c(=O)n3cc2F)CC1	12.5 (≈ 36.1 µM)
Cc1ccc(S(=O)(=O)O)cc1.NC1CCN(c2nc3c(cc2F)c(=O)c(C(=O)O)cn3-c2ccc(F)cc2F)C1 (configuration not stated) [TOSUFLOXACIN TOSYLATE]	0.39
Cc1c(N2C[C@@H]3C[C@H]2CN3)c(F)cn2c(=O)c(C(=O)O)cc(C3CC3)c12	0.2 (≈ 0.56 µM)
CCc1c(N2CCC(N)C2)c(F)cn2c(=O)c(C(=O)O)cc(C3CC3)c12 (configuration not stated)	0.39 (≈ 1.09 µM)
CN1CCN(c2nc3c(-c4ccc(F)cc4F)cc(C(=O)O)c(=O)n3cc2F)CC1	3.1 (≈ 7.41 µM)
O=C(O)c1cc(C2CC2)c2nc(N3CCOCC3)c(F)cn2c1=O	> 100

Target: T2, DNA gyrase (Escherichia coli)
Assay: In vitro antibacterial activity against gram-negative organism Prov. stuartii CMX-640
Type: functional
Conditions: Providencia stuartii

Structure (SMILES)	MIC [µg/mL]
CCc1cc(C(=O)O)c(=O)n2ccc(N3CCC(N)C3)cc12.Cl (configuration not stated)	25
CN1CCN(c2nc3c(C4CC4)cc(C(=O)O)c(=O)n3cc2F)CC1	50 (≈ 144 µM)
Cc1ccc(S(=O)(=O)O)cc1.NC1CCN(c2nc3c(cc2F)c(=O)c(C(=O)O)cn3-c2ccc(F)cc2F)C1 (configuration not stated) [TOSUFLOXACIN TOSYLATE]	1.56
Cc1c(N2C[C@@H]3C[C@H]2CN3)c(F)cn2c(=O)c(C(=O)O)cc(C3CC3)c12	0.78 (≈ 2.18 µM)
CCc1c(N2CCC(N)C2)c(F)cn2c(=O)c(C(=O)O)cc(C3CC3)c12 (configuration not stated)	3.1 (≈ 8.63 µM)
CN1CCN(c2nc3c(-c4ccc(F)cc4F)cc(C(=O)O)c(=O)n3cc2F)CC1	25 (≈ 59.8 µM)
O=C(O)c1cc(C2CC2)c2nc(N3CCOCC3)c(F)cn2c1=O	> 100

Target: T2, DNA gyrase (Escherichia coli)
Assay: In vitro antibacterial activity against gram-negative organism Klebsiella pneumoniae ATCC 8045
Type: functional
Conditions: not given

Structure (SMILES)	MIC [µg/mL]
CCc1cc(C(=O)O)c(=O)n2ccc(N3CCC(N)C3)cc12.Cl (configuration not stated)	3.1
CN1CCN(c2nc3c(C4CC4)cc(C(=O)O)c(=O)n3cc2F)CC1	0.1 (≈ 0.289 µM)
Cc1ccc(S(=O)(=O)O)cc1.NC1CCN(c2nc3c(cc2F)c(=O)c(C(=O)O)cn3-c2ccc(F)cc2F)C1 (configuration not stated) [TOSUFLOXACIN TOSYLATE]	0.02
Cc1c(N2C[C@@H]3C[C@H]2CN3)c(F)cn2c(=O)c(C(=O)O)cc(C3CC3)c12	0.05 (≈ 0.14 µM)
CCc1c(N2CCC(N)C2)c(F)cn2c(=O)c(C(=O)O)cc(C3CC3)c12 (configuration not stated)	0.1 (≈ 0.278 µM)
CN1CCN(c2nc3c(-c4ccc(F)cc4F)cc(C(=O)O)c(=O)n3cc2F)CC1	0.2 (≈ 0.478 µM)
O=C(O)c1cc(C2CC2)c2nc(N3CCOCC3)c(F)cn2c1=O	0.39 (≈ 1.17 µM)

Target: T1, DNA gyrase (Staphylococcus aureus)
Assay: In vitro antibacterial activity against gram-positive organism Staphylococcus aureus ATCC 6538p
Type: functional
Conditions: not given

Structure (SMILES)	MIC [µg/mL]
CCc1cc(C(=O)O)c(=O)n2ccc(N3CCC(N)C3)cc12.Cl (configuration not stated)	3.1
CN1CCN(c2nc3c(C4CC4)cc(C(=O)O)c(=O)n3cc2F)CC1	1.56 (≈ 4.5 µM)
Cc1ccc(S(=O)(=O)O)cc1.NC1CCN(c2nc3c(cc2F)c(=O)c(C(=O)O)cn3-c2ccc(F)cc2F)C1 (configuration not stated) [TOSUFLOXACIN TOSYLATE]	0.05
Cc1c(N2C[C@@H]3C[C@H]2CN3)c(F)cn2c(=O)c(C(=O)O)cc(C3CC3)c12	0.1 (≈ 0.28 µM)
CCc1c(N2CCC(N)C2)c(F)cn2c(=O)c(C(=O)O)cc(C3CC3)c12 (configuration not stated)	0.1 (≈ 0.278 µM)
CN1CCN(c2nc3c(-c4ccc(F)cc4F)cc(C(=O)O)c(=O)n3cc2F)CC1	0.2 (≈ 0.478 µM)
O=C(O)c1cc(C2CC2)c2nc(N3CCOCC3)c(F)cn2c1=O	6.2 (≈ 18.6 µM)

System: not listed separately
Assay: In vitro antibacterial activity against gram-negative organism Pseudomonas aeruginosa 5007
Type: functional
Conditions: Pseudomonas aeruginosa; read-out: MIC

Structure (SMILES)	MIC [µg/mL]
CCc1cc(C(=O)O)c(=O)n2ccc(N3CCC(N)C3)cc12.Cl (configuration not stated)	6.2
CN1CCN(c2nc3c(C4CC4)cc(C(=O)O)c(=O)n3cc2F)CC1	3.1 (≈ 8.95 µM)
Cc1ccc(S(=O)(=O)O)cc1.NC1CCN(c2nc3c(cc2F)c(=O)c(C(=O)O)cn3-c2ccc(F)cc2F)C1 (configuration not stated) [TOSUFLOXACIN TOSYLATE]	0.39
Cc1c(N2C[C@@H]3C[C@H]2CN3)c(F)cn2c(=O)c(C(=O)O)cc(C3CC3)c12	0.2 (≈ 0.56 µM)
CCc1c(N2CCC(N)C2)c(F)cn2c(=O)c(C(=O)O)cc(C3CC3)c12 (configuration not stated)	1.56 (≈ 4.34 µM)
CN1CCN(c2nc3c(-c4ccc(F)cc4F)cc(C(=O)O)c(=O)n3cc2F)CC1	6.2 (≈ 14.8 µM)
O=C(O)c1cc(C2CC2)c2nc(N3CCOCC3)c(F)cn2c1=O	25 (≈ 75 µM)

Target: T2, DNA gyrase (Escherichia coli)
Assay: In vitro antibacterial activity against gram-positive organism Streptococcus bovis A-5169
Type: functional
Conditions: Streptococcus equinus

Structure (SMILES)	MIC [µg/mL]
CCc1cc(C(=O)O)c(=O)n2ccc(N3CCC(N)C3)cc12.Cl (configuration not stated)	25
CN1CCN(c2nc3c(C4CC4)cc(C(=O)O)c(=O)n3cc2F)CC1	50 (≈ 144 µM)
Cc1ccc(S(=O)(=O)O)cc1.NC1CCN(c2nc3c(cc2F)c(=O)c(C(=O)O)cn3-c2ccc(F)cc2F)C1 (configuration not stated) [TOSUFLOXACIN TOSYLATE]	0.78
Cc1c(N2C[C@@H]3C[C@H]2CN3)c(F)cn2c(=O)c(C(=O)O)cc(C3CC3)c12	0.39 (≈ 1.09 µM)
CN1CCN(c2nc3c(-c4ccc(F)cc4F)cc(C(=O)O)c(=O)n3cc2F)CC1	12.5 (≈ 29.9 µM)
O=C(O)c1cc(C2CC2)c2nc(N3CCOCC3)c(F)cn2c1=O	> 100

Target: T1, DNA gyrase (Staphylococcus aureus)
Assay: In vitro antibacterial activity against gram-positive organism Staphylococcus aureus NCTC-10649M
Type: functional
Conditions: not given

Structure (SMILES)	MIC [µg/mL]
CCc1cc(C(=O)O)c(=O)n2ccc(N3CCC(N)C3)cc12.Cl (configuration not stated)	6.2
CN1CCN(c2nc3c(C4CC4)cc(C(=O)O)c(=O)n3cc2F)CC1	0.78 (≈ 2.25 µM)
Cc1ccc(S(=O)(=O)O)cc1.NC1CCN(c2nc3c(cc2F)c(=O)c(C(=O)O)cn3-c2ccc(F)cc2F)C1 (configuration not stated) [TOSUFLOXACIN TOSYLATE]	0.05
Cc1c(N2C[C@@H]3C[C@H]2CN3)c(F)cn2c(=O)c(C(=O)O)cc(C3CC3)c12	0.2 (≈ 0.56 µM)
CCc1c(N2CCC(N)C2)c(F)cn2c(=O)c(C(=O)O)cc(C3CC3)c12 (configuration not stated)	0.1 (≈ 0.278 µM)
CN1CCN(c2nc3c(-c4ccc(F)cc4F)cc(C(=O)O)c(=O)n3cc2F)CC1	0.2 (≈ 0.478 µM)
O=C(O)c1cc(C2CC2)c2nc(N3CCOCC3)c(F)cn2c1=O	6.2 (≈ 18.6 µM)

Target: T2, DNA gyrase (Escherichia coli)
Assay: In vitro antibacterial activity against gram-positive organism Enterococcus faecium ATCC 8043
Type: functional
Conditions: not given

Structure (SMILES)	MIC [µg/mL]
CCc1cc(C(=O)O)c(=O)n2ccc(N3CCC(N)C3)cc12.Cl (configuration not stated)	50
CN1CCN(c2nc3c(C4CC4)cc(C(=O)O)c(=O)n3cc2F)CC1	12.5 (≈ 36.1 µM)
Cc1ccc(S(=O)(=O)O)cc1.NC1CCN(c2nc3c(cc2F)c(=O)c(C(=O)O)cn3-c2ccc(F)cc2F)C1 (configuration not stated) [TOSUFLOXACIN TOSYLATE]	0.2
Cc1c(N2C[C@@H]3C[C@H]2CN3)c(F)cn2c(=O)c(C(=O)O)cc(C3CC3)c12	0.2 (≈ 0.56 µM)
CCc1c(N2CCC(N)C2)c(F)cn2c(=O)c(C(=O)O)cc(C3CC3)c12 (configuration not stated)	0.39 (≈ 1.09 µM)
CN1CCN(c2nc3c(-c4ccc(F)cc4F)cc(C(=O)O)c(=O)n3cc2F)CC1	6.2 (≈ 14.8 µM)
O=C(O)c1cc(C2CC2)c2nc(N3CCOCC3)c(F)cn2c1=O	> 100

Target: T2, DNA gyrase (Escherichia coli)
Assay: In vitro antibacterial activity against gram-negative organism […] ATCC 13048
Type: functional
Conditions: Enterobacter aerogenes

Structure (SMILES)	MIC [µg/mL]
CCc1cc(C(=O)O)c(=O)n2ccc(N3CCC(N)C3)cc12.Cl (configuration not stated)	3.1
CN1CCN(c2nc3c(C4CC4)cc(C(=O)O)c(=O)n3cc2F)CC1	0.39 (≈ 1.13 µM)
Cc1ccc(S(=O)(=O)O)cc1.NC1CCN(c2nc3c(cc2F)c(=O)c(C(=O)O)cn3-c2ccc(F)cc2F)C1 (configuration not stated) [TOSUFLOXACIN TOSYLATE]	0.05
Cc1c(N2C[C@@H]3C[C@H]2CN3)c(F)cn2c(=O)c(C(=O)O)cc(C3CC3)c12	0.1 (≈ 0.28 µM)
CCc1c(N2CCC(N)C2)c(F)cn2c(=O)c(C(=O)O)cc(C3CC3)c12 (configuration not stated)	0.39 (≈ 1.09 µM)
CN1CCN(c2nc3c(-c4ccc(F)cc4F)cc(C(=O)O)c(=O)n3cc2F)CC1	0.78 (≈ 1.86 µM)
O=C(O)c1cc(C2CC2)c2nc(N3CCOCC3)c(F)cn2c1=O	3.1 (≈ 9.3 µM)

System: not listed separately
Assay: In vitro antibacterial activity against gram-negative organism Pseudomonas aeruginosa DPHD-2862
Type: functional
Conditions: Pseudomonas aeruginosa; read-out: MIC

Structure (SMILES)	MIC [µg/mL]
CN1CCN(c2nc3c(C4CC4)cc(C(=O)O)c(=O)n3cc2F)CC1	> 100
Cc1ccc(S(=O)(=O)O)cc1.NC1CCN(c2nc3c(cc2F)c(=O)c(C(=O)O)cn3-c2ccc(F)cc2F)C1 (configuration not stated) [TOSUFLOXACIN TOSYLATE]	> 100
Cc1c(N2C[C@@H]3C[C@H]2CN3)c(F)cn2c(=O)c(C(=O)O)cc(C3CC3)c12	6.2 (≈ 17.3 µM)
CCc1c(N2CCC(N)C2)c(F)cn2c(=O)c(C(=O)O)cc(C3CC3)c12 (configuration not stated)	50 (≈ 139 µM)
CN1CCN(c2nc3c(-c4ccc(F)cc4F)cc(C(=O)O)c(=O)n3cc2F)CC1	> 100

Target: T2, DNA gyrase (Escherichia coli)
Assay: In vitro antibacterial against gram-negative organism Escherichia coli JUHL
Type: functional
Conditions: Escherichia coli K-12

Structure (SMILES)	MIC [µg/mL]
CCc1cc(C(=O)O)c(=O)n2ccc(N3CCC(N)C3)cc12.Cl (configuration not stated)	3.1
CN1CCN(c2nc3c(C4CC4)cc(C(=O)O)c(=O)n3cc2F)CC1	0.2 (≈ 0.577 µM)
Cc1ccc(S(=O)(=O)O)cc1.NC1CCN(c2nc3c(cc2F)c(=O)c(C(=O)O)cn3-c2ccc(F)cc2F)C1 (configuration not stated) [TOSUFLOXACIN TOSYLATE]	0.05
Cc1c(N2C[C@@H]3C[C@H]2CN3)c(F)cn2c(=O)c(C(=O)O)cc(C3CC3)c12	0.02 (≈ 0.056 µM)
CCc1c(N2CCC(N)C2)c(F)cn2c(=O)c(C(=O)O)cc(C3CC3)c12 (configuration not stated)	0.2 (≈ 0.556 µM)
CN1CCN(c2nc3c(-c4ccc(F)cc4F)cc(C(=O)O)c(=O)n3cc2F)CC1	0.39 (≈ 0.932 µM)
O=C(O)c1cc(C2CC2)c2nc(N3CCOCC3)c(F)cn2c1=O	3.1 (≈ 9.3 µM)
